Patent US6461859B1, “Enzymatic oxidation process for desulfurization of fossil fuels” (Instituto Mexicano del Petroleo, priority 1999, dated 2002)

Legend:
[1] = molecular target: T1, poly(ethylene)glycol-modified cytochrome c (PEG-Cyt) (Equus caballus, UniProt P00004); assay: Oxidation of low-sulfur diesel oil enriched with dibenzothiophene (gas chromatogram); assay type: biochemical; details: desulfurized diesel oil enriched with 10 g/l DBT, PEG-Cyt and hydrogen peroxide, GC FID/FPD
T1 construct: made in house
Excerpt: Desulfurized diesel oil (<0.05% of sulfur) is enriched with 10 g/l of DBT and treat with poly(ethylene)glycol-modified cytochrome c (PEG-Cyt) and hydrogen peroxide. […] DBT sulfoxide is an unstable compound which may be oxidized to form DBT sulfone. Cytochrome c is a biocatalyst able to oxidize thiophenes and organosulfides [Vazquez-Duhalt et al Enzyme Microb. Technol. 15 (1993) 494] and has several advantages when compared with other hemoenzymes. […] Technol. 15 (1993) 494; Vazquez-Duhalt et al Enzyme Microb. Technol. 15 (1993) 936.]. In addition, this biocatalyst can be modified by site-directed mutagenesis [E. Torres et al. Enzyme Microb. Technol. 17 (1995) 1014.] and by chemical modification [Tinoco and Vazquez-Duhalt. Enzyme Microb. Technol. 22 (1998) 8.] to improve both its catalytic activity and range of substrates. PEG-modified enzymes are soluble in organic solvents and their activity in organic solvents is increased because of the reduction of mass transfer limitations in the system [Vazquez-Duhalt et al. Enzyme Microb. Technol. 14 (1992) 837].

[2] = Biocatalytic oxidation of primary diesel fuel followed by distillation; details: chloroperoxidase treatment of primary diesel oil followed by distillation
Method: After biocatalytic oxidation of the fossil fuel a second process of separation of oxidized organosulfur compounds is envisaged. Because the boiling points of sulfur compounds are incersed after biocatlytic oxidation to sulfoxides, it is possible to remove them by a single distillation. Oxidized sulfur compounds can be removed by decreasing the final distillation point. When primary diesel fuel containing 1.6% sulfur is distilled in order to obtain a 100% distillation at a temperature 50° C. lower than the original fraction, it produces a diesel fuel containing 1.27% of sulfur and 83% of the original hydrocarbons. […] Thus, a biocatalytic treatment of primary diesel oil with chloroperoxidase from Caldariomyces fumago, followed by a distillation is able to reduce the sulfur content by 80%.

T1 sequence (P00004 2-105 limits assumed): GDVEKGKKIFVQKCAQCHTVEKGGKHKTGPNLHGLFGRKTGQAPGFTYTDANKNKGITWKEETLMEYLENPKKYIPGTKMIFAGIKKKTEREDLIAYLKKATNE

Molecule	biocatalytic transformation of DBT [1]	reduction of sulfur content [2]
c1ccc2c(c1)sc1ccccc12 [Dibenzothiophene]	transformed to DBT sulfoxide	
chloroperoxidase: chloroperoxidase (EC 1.11.1.10) from Caldariomyces fumago, hemoprotein biocatalyst (protein, UniProt P04963 21-319, looked up) Chloroperoxidase: QEPGSGIGYPYDNNTLPYVAPGPTDSRAPCPALNALANHGYIPHDGRAISRETLQNAFLNHMGIANSVIELALTNAFVVCEYVTGSDCGDSLVNLTLLAEPHAFEHDHSFSRKDYKQGVANSNDFIDNRNFDAETFQTSLDVVAGKTHFDYADMNEIRLQRESLSNELDFPGWFTESKPIQNVESGFIFALVSDFNLPDNDENPLVRIDWWKYWFTNESFPYHLGWHPPSPAREIEFVTSASSAVLAASVTSTPSSLPSGAIGPGAEAVPLSFASTMTPFLLATNAPYYAQDPTLGPND		80%
